What all share (assay type): functional
Common to all, as to conditions: route intraperitoneal

Assay [1] has as its system Rattus norvegicus. Kind of assay: Antiinflammatory activity in Wister albino rat assessed as inhibition of carrageenan-induced paw oedema at 50 mg/kg, ip administered 1 hr before carrageenan challenge measured after 2 hrs of induction of inflammation relative to control. For orientation: The carrageenan paw model is a standard test of acute inflammation.
Assay [2] has as its system Rattus norvegicus. Kind of assay: Antiinflammatory activity in Wister albino rat assessed as inhibition of carrageenan-induced paw oedema at 50 mg/kg, ip administered 1 hr before carrageenan challenge measured after 4 hrs of induction of inflammation relative to indomethacin.
Assay [3] relates to Rattus norvegicus. Kind of assay: Antiinflammatory activity in Wister albino rat assessed as inhibition of carrageenan-induced paw oedema at 50 mg/kg, ip administered 1 hr before carrageenan challenge measured after 4 hrs of induction of inflammation relative to control.
Assay [4] deals with Rattus norvegicus. The assay can be described thus: Antiinflammatory activity in Wister albino rat assessed as inhibition of carrageenan-induced paw oedema at 50 mg/kg, ip administered 1 hr before carrageenan challenge measured after 1 hr of induction of inflammation relative to control.
In assay [5] the test system is Rattus norvegicus. Kind of assay: Antiinflammatory activity in Wister albino rat assessed as inhibition of carrageenan-induced paw oedema at 50 mg/kg, ip administered 1 hr before carrageenan challenge measured after 24 hrs of induction of inflammation relative to control.
Assay [6] has as its system Rattus norvegicus. The assay can be described thus: Antiinflammatory activity in Wister albino rat assessed as inhibition of carrageenan-induced paw oedema at 50 mg/kg, ip administered 1 hr before carrageenan challenge measured after 3 hrs of induction of inflammation relative to control.
Assay [7] has as its system Rattus norvegicus. Kind of assay: Antiinflammatory activity in Wister albino rat assessed as inhibition of carrageenan-induced paw oedema at 10 mg/kg, ip administered 1 hr before carrageenan challenge measured after 2 hrs of induction of inflammation relative to control.
Assay [8] has as its system Rattus norvegicus. The assay can be described thus: Antiinflammatory activity in Wister albino rat assessed as inhibition of carrageenan-induced paw oedema at 10 mg/kg, ip administered 1 hr before carrageenan challenge measured after 4 hrs of induction of inflammation relative to control.
In assay [9] the test system is Rattus norvegicus. Kind of assay: Antiinflammatory activity in Wister albino rat assessed as inhibition of carrageenan-induced paw oedema at 10 mg/kg, ip administered 1 hr before carrageenan challenge measured after 1 hr of induction of inflammation relative to control.
In assay [10] the test system is Rattus norvegicus. Kind of assay: Antiinflammatory activity in Wister albino rat assessed as inhibition of carrageenan-induced paw oedema at 10 mg/kg, ip administered 1 hr before carrageenan challenge measured after 24 hrs of induction of inflammation relative to control.
For assay [11], the system named is Rattus norvegicus. Kind of assay: Antiinflammatory activity in Wister albino rat assessed as inhibition of carrageenan-induced paw oedema at 10 mg/kg, ip administered 1 hr before carrageenan challenge measured after 3 hrs of induction of inflammation relative to control.

Consider `CN1C/C(=C\c2ccc(F)cc2)C(=O)[C@]2(C1)[C@@H](c1ccc(F)cc1)CN(C)[C@@]21C(=O)Nc2ccccc21`, for which the inhibition in vivo (in general, the relative decrease from the control value, in per cent) at 50 mg/kg amounted to 78.4% in the assay with Rattus norvegicus [1]; 109% with Rattus norvegicus [2]; 61.5% in the assay with Rattus norvegicus [3]; 80.1% in the assay with Rattus norvegicus [4]; 57% in the assay on Rattus norvegicus [5]; 70.9% in the assay on Rattus norvegicus [6].
`CN1C/C(=C\c2ccccc2)C(=O)[C@]2(C1)[C@@H](c1ccccc1)CN(C)[C@@]21C(=O)Nc2ccccc21`: the inhibition in vivo at 50 mg/kg with Rattus norvegicus [1] is 73.3%; in the assay on Rattus norvegicus [2], 126%; in the assay with Rattus norvegicus [3], 70.9%; with Rattus norvegicus [4] it was 77%; in the assay with Rattus norvegicus [5], 65.1%; in the assay with Rattus norvegicus [6], 71.4%.
For `Cc1ccc(/C=C2\CN(C)C[C@@]3(C2=O)[C@@H](c2ccc(C)cc2)CN(C)[C@@]32C(=O)Nc3ccccc32)cc1`, the inhibition in vivo at 50 mg/kg in the assay on Rattus norvegicus [1] is 52.1%; in the assay on Rattus norvegicus [2], 89.7%; in the assay with Rattus norvegicus [3], 50.7%; in the assay with Rattus norvegicus [4], 69.2%; in the assay with Rattus norvegicus [5] it was 22.1%; in the assay on Rattus norvegicus [6], 50.9%.
Regarding `CN1C/C(=C\c2ccc(-c3cccs3)cc2)C(=O)[C@]2(C1)[C@@H](c1ccc(-c3cccs3)cc1)CN(C)[C@@]21C(=O)Nc2ccccc21`, the inhibition in vivo at 50 mg/kg worked out at 70.7% with Rattus norvegicus [1]; 126% in the assay on Rattus norvegicus [2]; 71.4% in the assay with Rattus norvegicus [3]; 68% with Rattus norvegicus [4]; 79.8% with Rattus norvegicus [5]; 74.8% in the assay on Rattus norvegicus [6].
Regarding `CN1C/C(=C\c2ccccc2)C(=O)[C@]2(C1)[C@@H](c1ccccc1)CN(C)[C@@]21C(=O)N(C)c2ccccc21`, the inhibition in vivo at 50 mg/kg stood at 70.7% in the assay on Rattus norvegicus [1]; 122% in the assay with Rattus norvegicus [2]; 68.8% with Rattus norvegicus [3]; 68% in the assay on Rattus norvegicus [4]; 26.5% in the assay with Rattus norvegicus [5]; 75.6% in the assay with Rattus norvegicus [6].
On to `CN1C/C(=C\c2ccc(Br)cc2)C(=O)[C@]2(C1)[C@@H](c1ccc(Br)cc1)CN(C)[C@@]21C(=O)N(C)c2ccccc21`, for which the inhibition in vivo at 50 mg/kg in the assay with Rattus norvegicus [1] is 49.1%; in the assay with Rattus norvegicus [2], 82.8%; in the assay with Rattus norvegicus [3] it was 46.8%; in the assay with Rattus norvegicus [4] it was 53.5%; in the assay with Rattus norvegicus [5], 83.5%; with Rattus norvegicus [6] it was 47.6%.
On to `COc1ccc2c(c1)c(CC(=O)O)c(C)n2C(=O)c1ccc(Cl)cc1` [INDOMETHACIN], for which the inhibition in vivo at 10 mg/kg with Rattus norvegicus [7] came to 70.7%; with Rattus norvegicus [8], 56.5%; in the assay with Rattus norvegicus [9], 72.9%; with Rattus norvegicus [10], 57%; in the assay on Rattus norvegicus [11] it was 61.3%.
Consider `CN1C/C(=C\c2ccc(F)cc2)C(=O)[C@]2(C1)[C@@H](c1ccc(F)cc1)CN(C)[C@@]21C(=O)N(C)c2ccccc21`, for which the inhibition in vivo at 50 mg/kg with Rattus norvegicus [1] was found to be 62%; in the assay with Rattus norvegicus [2], 83.5%; with Rattus norvegicus [3] it was 47.2%; in the assay with Rattus norvegicus [4], 75.8%; in the assay with Rattus norvegicus [5], 27.2%; in the assay on Rattus norvegicus [6], 55.8%.
As to `Cc1ccc(/C=C2\CN(C)C[C@@]3(C2=O)[C@@H](c2ccc(C)cc2)CN(C)[C@@]32C(=O)N(C)c3ccccc32)cc1`, the inhibition in vivo at 50 mg/kg in the assay with Rattus norvegicus [1] worked out at 62%; with Rattus norvegicus [2], 122%; with Rattus norvegicus [3] it was 68.8%; in the assay with Rattus norvegicus [4], 53.5%; with Rattus norvegicus [5], 57%; with Rattus norvegicus [6] it was 65%.
On to `CN1C/C(=C\c2ccc(Br)cc2)C(=O)[C@]2(C1)[C@@H](c1ccc(Br)cc1)CN(C)[C@@]21C(=O)Nc2ccccc21`, for which the inhibition in vivo at 50 mg/kg in the assay with Rattus norvegicus [1] is 69.3%; in the assay on Rattus norvegicus [2], 118%; in the assay on Rattus norvegicus [3], 66.8%; in the assay with Rattus norvegicus [4], 77.7%; with Rattus norvegicus [5], 82.7%; in the assay on Rattus norvegicus [6], 65.2%.
